From patent publication US20260083704A1, “LXR MODULATORS WITH BICYCLIC CORE MOIETY FOR TREATING DYSLIPIDEMIAS” (OrsoBio, Inc., priority 2022, published 2026)

Key:
LXRβ = biological target: T1, LXRβ (Homo sapiens, UniProt P55055); test: LXR Gal4 reporter transient transfection assay (mammalian two-hybrid, HEK293), LXRβ; assay type: cell-based; set-up: LXRβ (amino acids 156-461); expressed in transfected cells; host or cells: HEK293; conditions: full length (FL) LXRβ, HEK293; read-out: FL-M2H Gal4β
T1 sequence (P55055 1-460): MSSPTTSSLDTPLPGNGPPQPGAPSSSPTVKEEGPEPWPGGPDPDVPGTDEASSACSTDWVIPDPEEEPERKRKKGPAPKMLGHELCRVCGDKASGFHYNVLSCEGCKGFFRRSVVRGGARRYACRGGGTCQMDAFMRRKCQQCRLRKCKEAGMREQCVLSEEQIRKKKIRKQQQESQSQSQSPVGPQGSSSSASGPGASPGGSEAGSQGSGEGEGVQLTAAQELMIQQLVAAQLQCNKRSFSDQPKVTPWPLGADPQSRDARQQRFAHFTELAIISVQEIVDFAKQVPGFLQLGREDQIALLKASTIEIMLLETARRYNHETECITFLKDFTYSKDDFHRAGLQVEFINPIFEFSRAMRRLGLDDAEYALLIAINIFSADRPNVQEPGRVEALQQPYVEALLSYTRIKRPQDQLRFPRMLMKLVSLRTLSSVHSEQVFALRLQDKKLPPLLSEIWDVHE
In short: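 HEK293 cells transiently co-transfected with full-length or LBD LXRα/LXRβ fused to NFkB activation domain, GAL4-DBD-fused SRC1 or NCoR cofactor domain, GAL4-responsive firefly luciferase reporter and Renilla control. Compound added 4 h post-transfection (≤0.2% DMSO), incubated 16 h; firefly and Renilla luminescence read sequentially.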

[1] = Short term HFD mouse model: plasma and liver exposure; assay type: in vivo; conditions: HFD mice, 4 h after final dose
Method: The in vivo transcriptional regulation of several LXR target genes by LXR modulators was assessed in mice.
For this, C57BL/6J were purchased from Elevage Janvier (Rennes, France) at the age of 8 weeks. After an acclimation period of two weeks, animals were prefed on a high fat diet (HFD) (Ssniff Spezialdiäten GmbH, Germany, Surwit EF D12330 mod, Cat. No. E15771-34), with 60 kcal % from fat plus 1% (w/w) extra cholesterol (Sigma-Aldrich, St. Louis, MO) for 5 days. Animals were maintained on this diet during treatment with LXR modulators. The test compounds were formulated in 0.5% hydroxypropylmethylcellulose (HPMC) and administered in three doses (from 1.5 to 20 mg/kg each) by oral gavage according to the following schedule: on day one, animals received treatment in the morning and the evening (ca. 17:00), on day two animals received the final treatment in the morning after a 4 h fast and were sacrificed 4 h thereafter. Animal work was conducted according to the national guidelines for animal care in Germany.
Upon termination, liver was collected, dipped in ice cold PBS for 30 seconds and cut into appropriate pieces. Pieces were snap frozen in liquid nitrogen and stored at −80° C. For the clinical chemistry analysis from plasma, alanine aminotransferase (ALT, IU/mL), cholesterol (CHOL, mg/dL) and triglycerides (TG, mg/dL) were determined using a fully-automated bench top analyzer (Respons®910, DiaSys Greiner GmbH, Flacht, Germany) with system kits provided by the manufacturer.

[2] = three oral doses of 10 mg/kg over two days
[3] = three oral doses of 20 mg/kg over two days

N#Cc1cccc(C#N)c1-c1c(-c2cccc(-c3ccc(C(=O)O)cc3Cl)c2)n(S(=O)(=O)C2CCC(F)(F)CC2)c2ccc(F)cc12 [11/63]
EC50 (LXRβ): < 100 nM
liver exposure 4 h [1, 2]: C (1 μM to ≤10 μM)
liver/plasma ratio 4 h [1, 2]: B (5 to ≤30)
plasma exposure 4 h [1, 2]: D (<100 nM)

N#Cc1cccc(C#N)c1-c1c(-c2cccc(-c3cc(F)c(C(=O)O)cc3Cl)c2)n(S(=O)(=O)c2ccc(C(F)F)cc2)c2ccc(F)cc12 [11/65]
EC50 (LXRβ): < 100 nM
liver exposure 4 h [1, 2]: C (1 μM to ≤10 μM)
liver/plasma ratio 4 h [1, 2]: C (30 to ≤100)
plasma exposure 4 h [1, 2]: D (<100 nM)

Cc1ccc(S(=O)(=O)n2c(-c3cccc(-c4ccc(C(=O)O)cc4)c3)c(-c3ccsc3C#N)c3cc(F)ccc32)cc1C [23/2]
EC50 (LXRβ): < 100 nM
liver exposure 4 h [1, 3]: A (<300 nM)
liver/plasma ratio 4 h [1, 3]: A (<5)
plasma exposure 4 h [1, 3]: C (100 nM to <300 nM)

CS(=O)(=O)NC(=O)c1ccc(-c2cccc(-c3c(-c4c(C#N)cccc4C#N)c4cc(F)ccc4n3S(=O)(=O)c3ccc(C(F)F)cc3)c2)c(Cl)c1 [32/5]
EC50 (LXRβ): < 100 nM
liver exposure 4 h [1, 2]: B (300 nM to ≤1 μM)
liver/plasma ratio 4 h [1, 2]: B (5 to ≤30)
plasma exposure 4 h [1, 2]: D (<100 nM)

N#Cc1cccc(C#N)c1-c1c(-c2cccc(-c3ccc(C(=O)NCC(=O)O)cc3Cl)c2)n(S(=O)(=O)c2ccc(C(F)F)cc2)c2ccc(F)cc12 [Compound 21/3]
EC50 (LXRβ): < 100 nM
liver exposure 4 h [1, 2]: C (1 μM to ≤10 μM)
liver/plasma ratio 4 h [1, 2]: D (>100)
plasma exposure 4 h [1, 2]: D (<100 nM)
